Laboratory results as given in patent publication US7985836B2, “Antimicrobial peptides and methods of identifying the same” (priority 2006, dated 2011).
Read-outs that look alike come from different tables or passages of the source. Square brackets hold non-standard residues; d marks the D form. Ends that are not written are not given here. Peptide text beside a SMILES is read from it. Phg = N[C@H](C(=O)O)c1ccccc1

Legend:
[1] = Analytical reversed-phase HPLC retention time as a measure of hydrophobicity; assay type: physicochemical; conditions: for tRP, retention time on a reverse-phase column of HPLC as a measure of hydrophobicity: Table 4, 1 ml/min; for tRP, retention time on a reverse-phase column of HPLC as a measure of hydrophobicity / tRP, retention time on a reversed-phase HPLC column as a measure of hydrophobicity: Vydac C18, acetonitrile 5% to 95%; for tRP, retention time on a reversed-phase HPLC column as a measure of hydrophobicity: Table 1, 1 mL/min, ~25° C.
Description: Analytical Reversed-Phase HPLC. The retention time of the peptide was measured on an ISCO (Lincoln, Nebr.) HPLC system equipped with a Vydac (Hesperia, Calif.) C18 reversed-phase column (250×4.6 mm) at an ambient temperature of ˜25° C. The peptide was eluted with a linear gradient of acetonitrile (containing 0.1% TFA) from 5% to 95% at a flow rate of 1 mL/min. Peptides were detected by UV absorbance at 215 nm.
Analytical reverse-phase HPLC. The retention time of each peptide was measured on an ISCO HPLC system equipped with aVydac C18 reverse-phase column (250×4.6 mm). The peptide was eluted with a linear gradient of acetonitrile (containing 0.1% TFA) from 5% to 95% at a flow rate of 1 ml/min. Peptides were detected by UV absorbance at 215 nm.

[2] = tested on: Escherichia coli D21; conditions: Escherichia coli D21, previous assays (Johansson 1998; Oren 1999); cited from earlier work
[3] = tested on: wild type E. coli K12; assay type: cell-based
Description: Antibacterial Assays. The antibacterial activity of the LL-37 peptides and its analogues was analyzed using the standard approach of microdilution (Wang et al. (2005) J. Biol. Chem., 280:5803-5811; Yu et al. (2002) J. Pept. Res., 60:1-9). In brief, a small culture of wild type E. coli K12 was grown overnight. A fresh culture was inoculated with a small aliquot of the overnight culture and incubated at 37° C. until the optical density reached the mid-logarithmic stage. The culture (90 μL each) was then diluted to an A600 of 0.001 and partitioned into a 96-well plate with ˜10^6 cells per well. […] Each peptide assay was repeated 3 times. The plate was then further incubated at 37° C. overnight (˜16 hours) and read on an Ultra Microplate Reader at 620 nm (Bio-TEK Instruments; Winooski, Vt.).

[4] = tested on: drug-sensitive KB; assay type: cell-based; conditions: peptide concentration that kills 50% of the cells; MTT, 68 hours of exposure
Description: (§1) Anticancer Assays. Cytotoxicity studies were performed using the calorimetric MTT assays for assessing cell viability (Mark et al. (1999) Life Sci., 64:1941-1953; Hansen et al. (1989) J. Immunol. Methods, 119:203-210). Three cell lines were used, including drug-resistant KBv, drug-sensitive KB, and the nontransformed human brain microvessel endothelial cells (HBMEC). In brief, the cells were seeded onto 96-well plates at a density of 5000 cells per well. The cells were exposed to various concentrations (5-320 μM) of LL-37 peptides (triplicate assays for each) 24 hours after seeding. After 68 hours of exposure, the peptide solution was replaced with fresh media and followed by cytotoxicity analysis using the MTT assay.
(§2) The MTT assay was performed by incubating the cells with 5 mg/mL of 3-[4,5-dimethylthiazol-2-yl]-2,5-dephenyltetrazolium bromide (MTT) for 2 hours at 37° C. The cells were then solubilized in a 50:50 mixture of dimethyl formamide (DMF) and H2O containing 20% SDS (pH 4.7). The plates were read after overnight incubation. Viability is directly proportional to the amount of metabolic conversion of MTT to formazin in the mitochondria of living cells and is assessed by measuring the absorbance at 550 nm using a Microkinetics Reader (Fisher Biotech). Viability is expressed as a percent of control cells receiving only culture media without any peptides. The data from the cytotoxicity studies were plotted using Microsoft Excel, and the LC50 (concentration resulting in 50% reduction in cell viability) and standard deviations were determined for each peptide.

[5] = tested on: drug-resistant KBv; assay: Anticancer/cytotoxicity MTT assay, KBv cells; assay type: cell-based; conditions: peptide concentration that kills 50% of the cells, 68 hours of exposure, read-out: KBv LC50
Description: as §1, §2

[6] = Cytotoxicity MTT assay, HBMEC; assay type: cell-based; conditions: normal human cells, peptide concentration that kills 50% of the cells, 68 hours of exposure, read-out: HBMEC LC50
Description: as §1, §2

[7] = tested on: E. coli strain K12 3000; conditions: minimum concentration at which E. coli growth is completely inhibited; from Wang et al. (2005) J. Biol. Chem. 280:5803; cited from earlier work
[8] = tested on: E. coli strain K12 3000; assay: Antibacterial assay, microdilution MIC (Example 2); assay type: cell-based; conditions: minimum concentration at which E. coli growth is completely inhibited
Description: Antibacterial assay. The antibacterial activity of the peptides was analyzed using the standard microdilution approach (Wang et al. (2005) J. Biol. Chem., 280:5803-5811). In brief, a small culture of E. coli strain K12 3000 was grown overnight. A fresh culture was inoculated with a small aliquot of the overnight culture and incubated at 37° C. until the culture reached the logarithmic stage (A600 ˜0.5, 9×10^8 cells/ml). The culture was then diluted to A600 ˜0.001 and partitioned into a 96-well plate with ˜10^6 cells per well (90 μl each). Then, 10 μl aliquots of the peptide at different concentrations (three assays for each) were added to the cultures, allowing the minimum inhibition concentration (MIC) to be measured. The plate was then further incubated overnight (˜16 hours) at 37° C. and read on an Ultra Microplate Reader at 620 nm (Bio-TEK Instruments).

[9] = minimum inhibitory concentration, wild type E. coli K12, overnight (~16 hours) at 37° C.

CC[C@H](C)[C@H](NC(=O)[C@H](CCCCN)NC(=O)[C@H](CCCCN)NC(=O)[C@@H](NC(=O)[C@@H](NC(=O)[C@H](CC(=O)O)NC(=O)[C@H](Cc1ccccc1)NC(=O)[C@H](CC(C)C)NC(=O)CN)[C@@H](C)CC)[C@@H](C)CC)C(=O)N[C@@H](C)C(=O)N[C@@H](CCC(=O)O)C(=O)N[C@@H](CO)C(=O)N[C@H](C(N)=O)c1ccccc1 [F13X-aurein 1.2, GLFDIIKKIAESX] (H-GLFDIIKKIAES[Phg]-NH2; N-terminus and C-terminus assumed)
retention time on reversed-phase HPLC (hydrophobicity) [1]: 38.3 min | tRP, retention time on a reverse-phase column of HPLC as a measure of hydrophobicity [1]: 38.3 min

CC[C@H](C)[C@H](NC(=O)[C@H](CCCCN)NC(=O)[C@H](CCC(=O)O)NC(=O)[C@H](CCCCN)NC(=O)[C@H](CO)NC(=O)[C@H](CCCCN)NC(=O)[C@H](CCCNC(=N)N)NC(=O)[C@H](Cc1ccccc1)NC(=O)[C@H](Cc1ccccc1)NC(=O)[C@H](CC(=O)O)NC(=O)CNC(=O)[C@H](CC(C)C)NC(=O)[C@@H](N)CC(C)C)C(=O)NCC(=O)N[C@@H](CCCCN)C(=O)N[C@@H](CCC(=O)O)C(=O)N[C@@H](Cc1ccccc1)C(=O)N[C@@H](CCCCN)C(=O)N[C@@H](CCCNC(=N)N)C(=O)N[C@H](C(=O)N[C@H](C(=O)N[C@@H](CCC(N)=O)C(=O)N[C@@H](CCCNC(=N)N)C(=O)N[C@H](C(=O)N[C@@H](CCCCN)C(=O)N[C@@H](CC(=O)O)C(=O)N[C@@H](Cc1ccccc1)C(=O)N[C@@H](CC(C)C)C(=O)N[C@@H](CCCNC(=N)N)C(=O)N[C@@H](CC(N)=O)C(=O)N[C@@H](CC(C)C)C(=O)N[C@H](C(=O)N1CCC[C@H]1C(=O)N[C@@H](CCCNC(=N)N)C(=O)N[C@H](C(=O)N[C@@H](CCC(=O)O)C(=O)N[C@@H](CO)C(=O)O)[C@@H](C)O)C(C)C)[C@@H](C)CC)C(C)C)[C@@H](C)CC [LL-37, reference compound]
MIC [2]: 5 to 25 µM | E. Coli MIC [3, 9]: 40 µM

FKRIVQRIKDFLR-NH2 [LL-37(17-29), FKRIVQRIKDFLR]
KB LC50 [4]: 57 ± 3 µM | CC50 [5]: 60 µM | CC50 at 68 h [6]: 55 ± 2 µM | E. Coli MIC [3, 9]: 40 µM

FKRIVQRIKDFLRNLV-NH2 [LL-37(17-32), FKRIVQRIKDFLRNLV]
KB LC50 [4]: 30 ± 1 µM | CC50 [5]: 30 µM | CC50 at 68 h [6]: 25 ± 1 µM | E. Coli MIC ([3]; K12, 16 h): 20 µM

GLFDIIKKIAESF [aurein 1.2, antimicrobial and anticancer peptide isolated from the Australian Bell Frog, reference compound]
retention time on reversed-phase HPLC (hydrophobicity) [1]: 43 min | tRP, retention time on a reversed-phase HPLC column as a measure of hydrophobicity [1]: 42.0 min | tRP, retention time on a reverse-phase column of HPLC as a measure of hydrophobicity [1]: 43.0 min | MIC [7]: 75 µM

GLFDIIKKIAESW-NH2 (C-terminus assumed) [F13W-aurein 1.2, GLFDIIKKIAESW]
MIC [8]: 320 µM | tRP, retention time on a reverse-phase column of HPLC as a measure of hydrophobicity [1]: 40.5 min

GLFDKLKSLVSDDKK [anchor, bacterial membrane anchor of glucose-specific enzyme IIA of E. coli, reference compound]
retention time on reversed-phase HPLC (hydrophobicity) [1]: 29.5 min | tRP, retention time on a reversed-phase HPLC column as a measure of hydrophobicity [1]: 29.5 min | tRP, retention time on a reverse-phase column of HPLC as a measure of hydrophobicity [1]: 29.5 min

IGKEFKRIVQRIKDFLRNLVPRTES [LL-37(13-37)]
KB LC50 [4]: 40 ± 0 µM | CC50 [5]: 39 µM | CC50 at 68 h [6]: 38 ± 3 µM | E. Coli MIC ([3]; K12, 16 h): 80 µM

LLGDFFRKSKEK [LL-37(1-12), LLGDFFRKSKEK]
CC50 [5]: > 320 µM | CC50 at 68 h [6]: > 320 µM

LLGDFKRIVQRIKDF-NH2 [LL-37(1-4, 17-27), LLGDFKRIVQRIKDF]
CC50 [5]: > 320 µM | CC50 at 68 h [6]: > 320 µM | E. Coli MIC [3, 9]: 250 µM

RLFDKIRQVIRKF-NH2 (C-terminus assumed) [LLAA, RLFDKIRQVIRKF]
retention time on reversed-phase HPLC (hydrophobicity) [1]: 30.8 min | tRP, retention time on a reverse-phase column of HPLC as a measure of hydrophobicity [1]: 30.8 min
